Measurements from patent publication US20180318199A1, “Pharmaceutical Composition Having Anti-Aging Properties against High-Glucose” (TAIWAN LEADER BIOTECH CORP., priority 2017, published 2018).

Columns and labels:
Format in all cases: cell-based, human
[1] = tested on: HNDFs (CCD966SK); assay: MTT cytotoxicity of antcins against HNDFs; conditions: MTT, 72 h, up to 20 μM
Experimental: Please refer to FIG. 2A˜FIG. 2D, which are views showing HG-induced senescence affected by antcins in HNDFs. As shown in the figures, prior to an investigation, cytotoxicity of antcins against HNDFs is determined. In FIG. 2A, type of antcins are subjected to screen for potential anti-aging agents for skin aging. Names and chemical structures of the antcins are shown in the left and center column, respectively. The cytotoxic effects of antcins against HNDFs are investigated. Briefly, HNDFs are incubated with increasing concentrations (1, 5, 10 and 20 μM) of antcins including ANA, ANB, ANC, ANH, ANK and ANM for 72 h and the cell viability is determined by MTT assay. The 50% inhibitory concentrations (IC50) of each compound against HNDFs are shown in right column.
Cell viability is assessed by MTT colorimetric assay. Briefly, HNDFs (2×10^4cells/well) or HUVECs (5×10^4 cells/well) are seeded in a 24-well culture plate. After treatment with HG (15 and 30 mM) in the presence or absence of samples for 24-72 h, culture media is withdrawn and incubated with MTT (1 mg/mL) in fresh medium for 2 h. The MTT formazan crystals are dissolved in 400 μL of DMSO and the samples are measured at 570 nm […] using an ELISA microplate reader (Bio-Tek Instruments, Winooski, Vt.). The percentage of cell viability (%) is calculated as (A570 of treated cells/A570 of untreated cells)×100.

[2] = tested on: Nrf2; assay: ARE luciferase reporter assay in HUVECs; conditions: ANM 10 μM or RES 5 μM + HG 30 mM, 6 h; HG alone 0.5-fold, control 1-fold
Experimental: Cell lysates are mixed with luciferase reagents and quantified using an illuminometer. Relative ARE promoter activity is calculated by dividing the relative luciferase unit (RLU) of treated cells by RLU of untreated cells (NG). Results are expressed as mean±SEM of three independent experiments. Statistical significance is set at ^ϕP<0.05 as compared to NG vs. HG and *P<0.05 as compared to HG vs. samples.
ARE promoter activity is measured using a dual-luciferase reporter assay system (Promega, Madison, Wis.). […] Cells are then transfected with ARE plasmid (Qiagen, Hilden, Germany) using Lipofectamine 2000 (Invitrogen) and incubated for 36 h. […] The cell lysate is prepared and incubated with luciferase agents and the relative luminescence intensity is quantified using a spectrophotometer (Hidex Oy, Turku, Finland).

[3] = tested on: HUVECs; assay: MTT cell viability in HUVECs; conditions: 48 h
Experimental: Please refer to FIG. 9A˜FIG. 9H, which are views showing HG-induced senescence prevented by ANM in human umbilical vein endothelial cells (HUVECs). As shown in the figures, to further delineate the protective effects of ANM on another cell system, experiments are designed to investigate the protective effect of ANM on HUVECs incubated in media containing either NG or HG alone or with ANM for 48 h. Cell viability is measured by MTT assay. […] Cell viability is determined by MTT assay. Percentage of viable cells are normalized with control cells (NG). […] In addition, in FIG. 9B, cellular senescence is determined by SA-β-gal activity assay. […] In addition, in FIG. 9C and FIG. 9D, total cell lysate is extracted and senescence-associated marker proteins including p16^INK4A, p21^CIP1 total and acetylated p53 and FoxO1 are measured by western blot analysis.
Cell viability is assessed by MTT colorimetric assay. Briefly, HNDFs (2×10^4cells/well) or HUVECs (5×10^4 cells/well) are seeded in a 24-well culture plate. […] The MTT formazan crystals are dissolved in 400 μL of DMSO and the samples are measured at 570 nm (A540) using an ELISA microplate reader (Bio-Tek Instruments, Winooski, Vt.). The percentage of cell viability (%) is calculated as (A570 of treated cells/A570 of untreated cells)×100.

[4] = tested on: HNDFs; assay: Intracellular ROS by flow cytometry (DCFH-DA) in HNDFs; conditions: 24 h; for intracellular ROS generation: ANM 10 μM or NAC 100 μM + HG 30 mM, HG alone 426.2%; for ROS generation, compound alone: ANM 10 μM or NAC 100 μM without HG
Experimental: Next, please refer to FIG. 4A˜FIG. 4H, which are views showing HG-induced senescence inhibited by ANM in HNDFs. As shown in the figures, it is examined whether ANM inhibits HG-induced ROS generation. In FIG. 4A, HNDFs are incubated with ANM (10 μM) or NAC (100 μM) either in the presence or absence of HG (30 mM) for 24 h. The intracellular ROS level is determined by flow cytometry using DCH-DA flurogenic probe. […] As is shown, HNDFs are co-incubated with HG and ANM or NAC for 24 h, and intracellular ROS levels are measured by flow cytometry.
Moreover, in FIG. 6B, HNDFs are transfected with specific siRNA against Nrf2 or control siRNA. […] Intracellular ROS is measured by DCFH-DA assay.
Intracellular ROS accumulation is determined using the dye DCFH2-DA following a procedure described earlier. Briefly, HNDFs (1×10^5 cells/well) are seeded in 6-well plates and incubated with HG in the presence or absence of test samples for 24 h. At the end of the incubation, the culture supernatant is removed and cells are washed twice with PBS. DCFH2-DA […] is mixed with 500 μL MEM and added to the culture plate. After incubation for 30 minutes, cells are collected by trypsin and the fluorescence shift is quantified using a flow cytometer (Beckman Coulter). Data are acquired and analyzed using CXP software (Beckman Coulter).

[5] = tested on: SMP30; assay: SMP30 immunofluorescence in HNDFs; conditions: ANM 10 μM or NAC 100 μM + HG 30 mM, 72 h
Experimental: In FIG. 4C, SMP30 expression provided by ANM is examined. HNDFs are incubated with ANM (10 μM) or NAC (100 μM) in the presence or absence of HG (30 mM) for 72 h. The protein expression of SMP30 is measured by immunofluorescence using SMP30 specific primary antibody and fluorescein isothiocyanate-conjugated secondary antibody (green). The cellular localization of SMP30 is photographed using a fluorescence microscope. 4′,6-diamidino-2-phenylindole (DAPI) (1 μM) is used to stain the nucleus.
HNDFs at a density of 1×10^4 cells/well are cultured in an eight-well glass Nunc Lab-Tek chamber (ThermoFisher Scientific, Waltham, Mass.). Cells are treated with ANM or NAC in the presence or absence of HG for 2-72 h. After incubation, culture medium is removed and cells are fixed in 4% paraformaldehyde for 15 min, permeabilized with 0.1% Triton X-100 for 10 min, washed and blocked with 10% FBS in PBS, and then incubated overnight with the corresponding primary antibodies in 1.5% FBS. The cells are then incubated with the fluorescein isothiocyanate (FITC)-conjugated secondary antibody (Alexa fluor 488, ThermoFisher Scientific) for another 1 h in 6% bovine serum albumin (BSA). Next, the cells are stained with 1 μg/mL 4′,6-diamidino-2-phenylindole (DAPI, Cell Signaling Technology) for 5 min, washed with PBS, and visualized using a fluorescence microscope (Motic Electric Group) at 40× magnification.

SMILES	cytotoxicity to HNDFs (in words) [1]	relative ARE luciferase activity in HUVECs co-incubated with HG [2]	number of viable HUVECs under HG ([3]; ANM 10 μM or RES 5 μM + HG 30 mM, HG alone 35.01%)	cell viability of HUVECs, compound alone ([3]; ANM 10 μM or RES 5 μM)	HG-induced ROS generation, scrambled siRNA cells ([4]; ANM 10 μM + HG)	ROS generation, siNrf2 transfected cells ([4]; ANM 10 μM + HG)	intracellular ROS generation [4]	ROS generation, compound alone [4]	HG-induced reduction in SMP30 (immunofluorescence) [5]
C=C(CCC(C)C1CCC2C3=C(C(=O)C(O)C21C)C1(C)CCC(O)C(C)C1CC3)C(C)C(=O)O (stereo not drawn) [ANM, antcin M]	did not show significant cytotoxicity	4.8 fold	79.78%	does not affect cell viability	significantly inhibits	increased ROS generation	200.8%	does not significantly increase	significantly prevented
CC(=O)N[C@@H](CS)C(=O)O [NAC, N-acetylcysteine, reference compound]							176.58%	does not significantly increase	partially prevented
